Test results as given in patent US20130303507A1 (Novartis AG, priority 2011, published 2013).
“And” between values parts separate entries of the source, which are not always exact repeats. Equal values may be shown once.

biological target: Cdk9/cyclinT1 (Homo sapiens, UniProt P50750); experiment: Cdk9/cyclinT1 Alpha Screen protocol; type: biochemical; parameters: Full length wild type Cdk9/cyclin T1 is purchased from Invitrogen; purchased Invitrogen PV4131; conditions: TFA salt; individual determinations; read-out: CDK9_cyclinT1_AS2_IC50
Sequence (P50750 whole entry): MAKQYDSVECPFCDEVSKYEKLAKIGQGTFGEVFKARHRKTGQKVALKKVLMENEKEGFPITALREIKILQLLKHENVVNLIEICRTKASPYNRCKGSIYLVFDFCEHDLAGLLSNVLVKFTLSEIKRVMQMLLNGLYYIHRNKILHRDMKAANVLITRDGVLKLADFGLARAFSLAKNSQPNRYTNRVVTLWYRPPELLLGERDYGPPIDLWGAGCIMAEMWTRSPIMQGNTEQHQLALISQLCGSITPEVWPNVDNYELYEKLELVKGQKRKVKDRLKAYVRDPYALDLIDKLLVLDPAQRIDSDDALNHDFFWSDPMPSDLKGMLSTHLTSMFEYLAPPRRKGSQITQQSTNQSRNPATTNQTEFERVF
Sequence (O60563 whole entry partner): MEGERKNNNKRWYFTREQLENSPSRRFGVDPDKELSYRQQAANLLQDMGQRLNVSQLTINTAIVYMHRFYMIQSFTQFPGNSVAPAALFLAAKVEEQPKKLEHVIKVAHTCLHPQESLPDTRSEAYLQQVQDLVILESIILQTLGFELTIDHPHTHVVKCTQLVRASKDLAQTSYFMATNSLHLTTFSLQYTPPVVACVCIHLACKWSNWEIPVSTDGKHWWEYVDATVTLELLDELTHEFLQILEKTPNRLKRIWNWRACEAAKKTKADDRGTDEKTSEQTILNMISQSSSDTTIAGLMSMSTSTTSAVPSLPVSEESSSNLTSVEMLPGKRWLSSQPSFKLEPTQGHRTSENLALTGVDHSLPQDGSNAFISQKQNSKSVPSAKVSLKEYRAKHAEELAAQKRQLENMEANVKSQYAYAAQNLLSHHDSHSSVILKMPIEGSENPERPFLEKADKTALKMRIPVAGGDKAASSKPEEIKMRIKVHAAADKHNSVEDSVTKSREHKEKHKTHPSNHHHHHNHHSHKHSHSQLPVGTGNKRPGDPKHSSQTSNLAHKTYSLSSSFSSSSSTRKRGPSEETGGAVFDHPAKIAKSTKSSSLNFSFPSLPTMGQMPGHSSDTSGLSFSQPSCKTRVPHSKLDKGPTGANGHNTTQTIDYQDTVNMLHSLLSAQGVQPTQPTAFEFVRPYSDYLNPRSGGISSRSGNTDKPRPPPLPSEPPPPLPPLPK
Description: Cdk9/cyclinT1 Alpha Screen Protocol
Full length wild type Cdk9/cyclin T1 is purchased from Invitrogen, cat#PV4131. […] The cdk7tide peptide substrate, biotin-[…] -OH, is a custom synthesis purchased from the Tufts University Core Facility. The final concentration of cdk7tide peptide substrate is 200 nM. […] Phospho-Rpb1 CTD (ser2/5) substrate antibody is purchased from Cell Signaling Technology. The final concentration of antibody is 0.67 ug/ml. The Alpha Screen Protein A detection kit containing donor and acceptor beads is purchased from PerkinElmer Life Sciences. The final concentration of both donor and acceptor beads is 15 ug/ml. Alpha Screen is used for detection. […] The biotinylated-cdk7tide peptide substrate is bound to the streptavidin coated donor bead. The antibody is bound to the protein A coated acceptor bead. The antibody will bind to the phosphorylated form of the biotinylated-cdk7tide peptide substrate, bringing the donor and acceptor beads into close proximity. Laser irradiation of the donor bead at 680 nm generates a flow of short-lived singlet oxygen molecules. When the donor and acceptor beads are in close proximity, the reactive oxygen generated by the irradiation of the donor beads initiates a luminescence/fluorescence cascade in the acceptor beads. This process leads to a highly amplified signal with output in the 530-620 nm range. Assays are carried out in 50 mM Hepes, pH=7.5, 10 mM MgCl2, 0.1% Bovine Serum Albumin, 0.01% Tween-20, 1 mM Dithiothreitol, 2.5% Dimethyl Sulfoxide. Stop and detection steps are combined using 50 mM Hepes, pH=7.5, 18 mM EDTA, 0.1% Bovine Serum Albumin, 0.01% Tween-20.

Structure (SMILES) | IC50
N#CC1(COc2cncc(-c3cc(N[C@H]4CC[C@H](N)CC4)ncc3F)n2)CCOCC1 [Compound 534] | 0.471 nM
N#CC1(CNc2cccc(-c3cc(N[C@H]4CC[C@H](CN5CCOCC5)CC4)ncc3Cl)n2)CCOCC1 [Compound 536] | 1.87 nM
N#CC1(CNc2cccc(-c3cc(N[C@H]4CC[C@@H](N5CCCOCC5)CC4)ncc3Cl)n2)CCOCC1 [Compound 538] | 19.8 nM and 20.9 nM
C[C@H](N[C@H]1CC[C@H](Nc2cc(-c3cccc(NCC4(C#N)CCOCC4)n3)c(Cl)cn2)CC1)[C@@H](C)O [Compound 541] | 0.303 nM
N#CC1(CNc2cccc(-c3cc(N[C@H]4CC[C@H](NC[C@H](O)CF)CC4)ncc3Cl)n2)CCOCC1 [Compound 542] | 0.168 nM
C[C@H](O)[C@@H](C)N[C@H]1CC[C@H](Nc2cc(-c3cccc(NCC4(C#N)CCOCC4)n3)c(Cl)cn2)CC1 [Compound 543] | 0.229 nM
N#CC1(CNc2cccc(-c3cc(N[C@H]4CC[C@H](NC[C@@H](O)CF)CC4)ncc3Cl)n2)CCOCC1 [Compound 544] | 0.2 nM
COC[C@@H](C)N[C@H]1CC[C@H](Nc2cc(-c3cccc(NCC4(C#N)CC4)n3)c(F)cn2)CC1 [Compound 551] | 0.0753 nM and 0.28 nM and 0.0939 nM
COC[C@@H](C)N[C@H]1CC[C@H](Nc2cc(-c3cncc(OCC4(C#N)CCOCC4)n3)c(Cl)cn2)CC1 [Compound 552] | 0.842 nM and 1.05 nM and 0.384 nM
COC[C@@H](C)N[C@H]1CC[C@H](Nc2cc(-c3cncc(OCC4(C#N)CCOCC4)n3)c(F)cn2)CC1 [Compound 553] | 0.718 nM and 0.262 nM and 0.579 nM
COCCN[C@H]1CC[C@H](Nc2cc(-c3cncc(OCC4(C#N)CCOCC4)n3)c(F)cn2)CC1 [Compound 559] | 0.205 nM
N#CC1(COc2cncc(-c3cc(N[C@H]4CC[C@H](NCCC(F)(F)F)CC4)ncc3Cl)n2)CCOCC1 [Compound 562] | 0.321 nM

Second part, the compound after the results:

IC50 | Structure (SMILES)
0.433 nM and 0.226 nM | COCCN[C@H]1CC[C@H](Nc2cc(-c3ccc(F)c(NCC4(C)CCOCC4)n3)c(Cl)cn2)CC1 [Compound 565]
0.787 nM and 0.846 nM | COC[C@H](C)N[C@H]1CC[C@H](Nc2cc(-c3cccc(NCC4(C#N)CC4)n3)c(F)cn2)CC1 [Compound 566]
0.137 nM | N#CC1(CNc2cccc(-c3cc(N[C@H]4CC[C@H](O)CC4)ncc3F)n2)CCOCC1 [Compound 576]
0.432 nM and 0.255 nM | C[C@@](O)(CN[C@H]1CC[C@H](Nc2cc(-c3cccc(NCC4(C#N)CCOCC4)n3)c(Cl)cn2)CC1)C(F)(F)F [Compound 577]
0.497 nM and 0.311 nM | C[C@](O)(CN[C@H]1CC[C@H](Nc2cc(-c3cccc(NCC4(C#N)CCOCC4)n3)c(Cl)cn2)CC1)C(F)(F)F [Compound 578]
0.902 nM | C[C@](O)(CN[C@H]1CC[C@H](Nc2cc(-c3cccc(NCC4(C#N)CCOCC4)n3)ccn2)CC1)C(F)(F)F [Compound 579]
0.979 nM | C[C@@](O)(CN[C@H]1CC[C@H](Nc2cc(-c3cccc(NCC4(C#N)CCOCC4)n3)ccn2)CC1)C(F)(F)F [Compound 580]

same assay, conditions: neutral species; individual determinations; read-out: CDK9_cyclinT1_AS2_IC50

Structure (SMILES) | IC50
N#CC1(CNc2cccc(-c3cc(N[C@H]4CC[C@H](NCC(O)CF)CC4)ncc3Cl)n2)CCOCC1 (some centres unmarked) [Compound 535] | 0.398 nM
N#CC1(CNc2cccc(-c3cc(N[C@H]4CC[C@H](CN5CCOCC5)CC4)ncc3Cl)n2)CCOCC1 [Compound 536] | 2.11 nM
CC(O)(CN[C@H]1CC[C@H](Nc2cc(-c3cccc(NCC4(C#N)CCOCC4)n3)c(Cl)cn2)CC1)C(F)(F)F (some centres unmarked) [Compound 539] | 0.537 nM and 0.466 nM
COCCNC[C@H]1CC[C@H](Nc2cc(-c3cccc(NCC4(C#N)CCOCC4)n3)c(Cl)cn2)CC1 [Compound 540] | 0.596 nM and 0.536 nM
N#CC1(CNc2cccc(-c3cc(N[C@H]4CC[C@H](N5CC6(COC6)C5)CC4)ncc3Cl)n2)CCOCC1 [Compound 546] | 1.42 nM and 1.08 nM and 1.12 nM
N#CC1(CNc2cccc(-c3cc(N[C@H]4CC[C@@H](N5CC6(COC6)C5)CC4)ncc3Cl)n2)CCOCC1 [Compound 547] | 6.15 nM
N#CC1(COc2cncc(-c3cc(N[C@H]4CC[C@H](N5CCCOCC5)CC4)ncc3Cl)n2)CCOCC1 [Compound 548] | 1.01 nM
N#CC1(COc2cncc(-c3cc(N[C@H]4CC[C@@H](N5CCCOCC5)CC4)ncc3Cl)n2)CCOCC1 [Compound 549] | 55.6 nM
N#CC1(COc2cncc(-c3cc(N[C@H]4CC[C@H](NCCF)CC4)ncc3Cl)n2)CCOCC1 [Compound 550] | 0.429 nM
COC[C@@H](C)N[C@H]1CC[C@H](Nc2cc(-c3cccc(NCC4(C#N)CC4)n3)c(F)cn2)CC1 [Compound 551] | 0.299 nM and 0.303 nM and 0.654 nM
COC[C@@H](C)N[C@H]1CC[C@H](Nc2cc(-c3cncc(OCC4(C#N)CCOCC4)n3)c(Cl)cn2)CC1 [Compound 552] | 1.12 nM
COC[C@@H](C)N[C@H]1CC[C@H](Nc2cc(-c3cncc(OCC4(C#N)CCOCC4)n3)c(F)cn2)CC1 [Compound 553] | 0.654 nM
C[C@H](O)CN[C@H]1CC[C@H](Nc2cc(-c3cccc(NCC4(C#N)CCOCC4)n3)c(Cl)cn2)CC1 [Compound 554] | 0.395 nM
COCCN(C1CC1)[C@H]1CC[C@H](Nc2cc(-c3cncc(OCC4(C#N)CCOCC4)n3)c(F)cn2)CC1 [Compound 555] | 2.13 nM
COCCN[C@H]1CC[C@H](Nc2cc(-c3cncc(OCC4(C#N)CC4)n3)c(F)cn2)CC1 [Compound 556] | 0.628 nM
COC[C@@H](C)N[C@H]1CC[C@H](Nc2cc(-c3cncc(OCC4(C#N)CC4)n3)c(F)cn2)CC1 [Compound 557] | 0.378 nM
COCCN[C@H]1CC[C@H](Nc2cc(-c3cncc(OCC4(C#N)CCOCC4)n3)c(F)cn2)CC1 [Compound 559] | 0.512 nM
N#CC1(CNc2cccc(-c3cc(N[C@H]4CC[C@H](NCC5(O)CC5)CC4)ncc3Cl)n2)CCOCC1 [Compound 560] | 0.481 nM
N#CC1(COc2cncc(-c3cc(N[C@H]4CC[C@H](NCCC(F)(F)F)CC4)ncc3Cl)n2)CCOCC1 [Compound 562] | 0.549 nM
N#CC1(CNc2cccc(-c3cc(N[C@H]4CC[C@H](NC5CC(F)(F)C5)CC4)ncc3Cl)n2)CCOCC1 [Compound 563] | 0.416 nM
N#CC1(CNc2cccc(-c3cc(N[C@H]4CC[C@@H](NC5CC(F)(F)C5)CC4)ncc3Cl)n2)CCOCC1 [Compound 564] | 9.54 nM

Second part, the compound after the results:

IC50 | Structure (SMILES)
0.334 nM and 0.311 nM | COCCN[C@H]1CC[C@H](Nc2cc(-c3ccc(F)c(NCC4(C)CCOCC4)n3)c(Cl)cn2)CC1 [Compound 565]
0.754 nM and 0.279 nM | N#CC1(CN[C@H]2CC[C@H](Nc3cc(-c4cncc(OCC5(C#N)CCOCC5)n4)c(Cl)cn3)CC2)CC1 [Compound 567]
1.34 nM | N#CC1(CNc2cccc(-c3cc(N[C@H]4CC[C@H](N5CCC6(COC6)C5)CC4)ncc3Cl)n2)CCOCC1 [Compound 570]
0.397 nM | N#CC1(CNc2cccc(-c3cc(N[C@H]4CC[C@H](NCCCO)CC4)ncc3Cl)n2)CCOCC1 [Compound 571]
0.301 nM | N#CC1(CNc2cccc(-c3cc(N[C@H]4CC[C@H](NCCO)CC4)ncc3Cl)n2)CCOCC1 [Compound 572]
6.44 nM | N#CC1(CNc2cccc(-c3cc(N[C@H]4CC[C@@H](NCC5(O)CC5)CC4)ncc3Cl)n2)CCOCC1 [Compound 573]
0.448 nM | N#CC1(COc2cncc(-c3cc(N[C@H]4CC[C@H](NC[C@H](O)C(F)(F)F)CC4)ncc3Cl)n2)CCOCC1 [Compound 574]
0.215 nM | N#CC1(COc2cncc(-c3cc(N[C@H]4CC[C@H](NC[C@@H](O)C(F)(F)F)CC4)ncc3Cl)n2)CCOCC1 [Compound 575]
1 nM | COC[C@@H](C)N(O)[C@H]1CC[C@H](Nc2cc(-c3cncc(OCC4(C#N)CCOCC4)n3)c(Cl)cn2)CC1 [Compound 581]
1 nM | C[C@@](O)(CN[C@H]1CC[C@H](Nc2cc(-c3cncc(OCC4(C#N)CCOCC4)n3)c(Cl)cn2)CC1)C(F)(F)F [Compound 582]
11 nM | N#CC1(COc2cncc(-c3cc(NC4CCCNCC4)ncc3Cl)n2)CCOCC1 (centres unmarked) [Compound 583]
< 1 nM | C[C@H](CO)N[C@H]1CC[C@H](Nc2cc(-c3cccc(NCC4(C#N)CCOCC4)n3)c(Cl)cn2)CC1 [Compound 584]
< 1 nM | C[C@@H](O)CN[C@H]1CC[C@H](Nc2cc(-c3cccc(NCC4(C#N)CCOCC4)n3)c(Cl)cn2)CC1 [Compound 585]
1 nM | COC[C@H](C)N[C@H]1CC[C@H](Nc2cc(-c3cncc(OCC4(C#N)CCOCC4)n3)c(Cl)cn2)CC1 [Compound 586]
1 nM | COC[C@H](C)N[C@H]1CC[C@H](Nc2cc(-c3cccc(NCC4(C#N)CC4)n3)c(F)cn2)CC1 [Compound 587]
< 1 nM | N#CC1(CNc2cccc(-c3cc(N[C@H]4CC[C@H](N[C@H]5CCCC[C@@H]5O)CC4)ncc3Cl)n2)CCOCC1 [Compound 588]
1 nM | COC[C@H](C)N[C@H]1CC[C@H](Nc2cc(-c3cncc(OCC4(C#N)CCOCC4)n3)c(F)cn2)CC1 [Compound 589]
5 nM | C[C@H](CO)N[C@H]1CC[C@H](Nc2cc(-c3cncc(OCC4(C#N)CCOCC4)n3)c(Cl)cn2)CC1 [Compound 590]
< 1 nM | C[C@H](CO)N[C@H]1CC[C@@H](Nc2cc(-c3cncc(OCC4(C#N)CCOCC4)n3)c(Cl)cn2)CC1 [Compound 591]
< 1 nM | C[C@H](CO)N[C@H]1CC[C@H](Nc2cc(-c3cncc(OCC4(C#N)CCOCC4)n3)c(F)cn2)CC1 [Compound 592]
25 nM | C[C@H](CO)N[C@H]1CC[C@@H](Nc2cc(-c3cncc(OCC4(C#N)CCOCC4)n3)c(F)cn2)CC1 [Compound 593]
< 1 nM | [2H]C(C)(COC)N[C@H]1CC[C@H](Nc2cc(-c3cccc(NCC4(C#N)CCOCC4)n3)c(Cl)cn2)CC1 (some centres unmarked) [Compound 594]
< 1 nM | [2H]C([2H])([2H])OCC(C)N[C@H]1CC[C@H](Nc2cc(-c3cncc(OCC4(C#N)CCOCC4)n3)c(Cl)cn2)CC1 (some centres unmarked) [Compound 595]
< 1 nM | [2H][C@@](C)(COC)N[C@H]1CC[C@H](Nc2cc(-c3cccc(NCC4(C#N)CCOCC4)n3)c(Cl)cn2)CC1 [Compound 596]
< 1 nM | [2H][C@](C)(COC)N[C@H]1CC[C@H](Nc2cc(-c3cccc(NCC4(C#N)CCOCC4)n3)c(Cl)cn2)CC1 [Compound 597]
